In patent US10882869B2, “Condensed heterocyclic compounds and pesticides” (NISSAN CHEMICAL CORPORATION, priority 2015, dated 2021) one finds mortality and pest or weed control data, which are given here for 13 molecules.

Bounds are passed on as bounds.

Format in all cases: in vivo
Test [1] relates to Frankliniella occidentalis. The experiment in a line: Insecticidal activity on Frankliniella occidentalis (kidney bean leaf spray). The conditions noted are these: 48 h, 500 ppm solution sprayed (2.5 mg/cm^2), larvae on kidney bean leaves, 2 days after. On the procedure:
In styrol cups having an inner diameter of 7 cm, wet filter paper was laid, kidney bean leaves cut into a 3 cm square were laid on the paper, and each leaf was inoculated with 20 larvae of Frankliniella occidentalis. […] 2.5 ml of the solutions were sprayed from a rotary spray tower into the styrol cups (2.5 mg/cm^2).
2 Days after, dead insects were counted, and insect damage on kidney bean leaves was examined. The mortality was calculated by using the same equation as in Test Example 1.
The insect damage degree was evaluated as follows. 1: 0 to 20% insect damage, 2: 20 to 50% insect damage, 3: 50 to 70% insect damage, and 4: 70% or higher insect damge. The test was carried out in duplicate.

Test [2] concerns Nilaparvata lugens. The test is described as follows: Insecticidal test on Nilaparvata lugens (rice sheaths soaked). The conditions noted are these: 144 h, 500 ppm solution, 3rd-instar larvae, 6 days after, 25° C. On the procedure: Rice sheaths were soaked in the solutions for about 10 seconds. After the soaking, the rice sheaths were dried in air and put in test tubes. In each tube, five 3rd-instar larvae of Nilaparvata lugens were released, and the tubes were capped with sponge and placed in an incubator at 25° C. 6 Days after, dead insects in the test tubes were counted, and the mortality (%) (the number of dead insects÷the number of released insects×100) was calculated. The test was carried out in duplicate.

The subject of the next test is Myzus persicae. The experiment in a line: Insecticidal test on Myzus persicae (cabbage leaf spray). Conditions: 144 h, 500 ppm solution sprayed (2.5 mg/cm^2), apterous adults on cabbage leaves, 6 days after, 25° C. On the procedure: Wet absorbent cotton was laid on glass dishes having an inner diameter of 3 cm, and covered with leaves of cabbage cut into circles of the same diameter, and 4 apterous adults of Myzus persicae were released. […] The solutions were sprayed from a rotary spray tower (2.5 mg/cm^2), and the dishes were covered with lids and placed in an incubator at 25° C. 6 Days after, dead insects were counted, and the mortality was calculated by using the same equation as in Test Example 1. The test was carried out in duplicate.

In another test the test system is Ctenocephalides felis. The experiment in a line: Test on the effect on Ctenocephalides felis (thin film in glass container). The conditions noted are these: 96 h, application dose 10 μg/cm^2, adults, 4 days after release, 25° C. On the procedure: 350 μl of the solutions were applied to the bottoms and the side walls of glass containers with an inner wall surface area of 35 cm^2, and acetone was volatilized to prepare thin films of the compounds on the inner walls of the glass containers. Since the inner wall surface area of each glass container was 35 cm^2, the application dose was 10 μg/cm^2.
To each glass container, five adults (male and female) of Ctenocephalides felis were released, and the containers were covered with lids and placed in an incubator at 25° C. 4 Days after the release of the fleas, dead fleas were counted, and the mortality was calculated by using the same equation as in Test Example 1.

For test [3], the system named is Nilaparvata lugens. The test is described as follows: Systemic insecticidal test on Nilaparvata lugens (rice seedling root dip). Conditions: 20 ppm solution, rice seedling roots dipped 7 days, 3rd-instar larvae, 6 days after release, 25° C. On the procedure:
7 Days after, the rice seedlings were picked and put in test tubes, and in each tube, five 3rd-instar larvae of Nilaparvata lugens were released, and the tubes were capped with sponge and placed in an incubator at 25° C. 6 Days after the release of the insects, dead insects were counted, and the mortality (%) (the number of dead insects÷the number of released insects×100) was calculated. The test was carried out in duplicate.

Another test has as its system Spodoptera litura. The test is described as follows: Insecticidal test on Spodoptera litura (cabbage leaves soaked). The conditions noted are these: 144 h, 500 ppm solution, 3rd-instar larvae, 6 days after, 25° C. On the procedure:
Leaves of cabbage were soaked in the solutions for about 10 seconds. After the soaking, the leaves were dried in air and placed in dishes. In each dish, five 3rd-instar larvae of Spodoptera litura were released, and the dishes were covered with lids and placed in an incubator at 25° C. 6 Days after, dead insects in the dishes were counted, and the mortality was calculated by using the same equation as in Test Example 1. The test was carried out in duplicate.

In test [4] the test system is Plutella xylostella. The test is described as follows: Insecticidal test on Plutella xylostella (cabbage leaves soaked). The conditions noted are these: 144 h, 500 ppm solution, 3rd-instar larvae, 6 days after, 25° C. On the procedure: Leaves of cabbage were soaked in the solutions for about 10 seconds. After the soaking, the leaves were dried in air and placed in dishes. In each dish, five 3rd-instar larvae of Plutella xylostella were released, and the dishes were covered with lids and placed in an incubator at 25° C. 6 Days after, dead insects in the dishes were counted, and the mortality was calculated by using the same equation as in Test Example 1. The test was carried out in duplicate.

The subject of test [5] is Plutella xylostella. The test is described as follows: Soil irrigation test on Plutella xylostella. Conditions: 144 h, 500 ppm solution, 10 ml soil irrigation of cabbage seedlings, leaves picked 5 days after, 3rd-instar larvae, 6 days after. On the procedure: The soil around the bases of cabbage seedlings (at the 2.5-leaf stage) planted in plastic cups was irrigated with 10 ml of the solutions. After the irrigation, the cabbage seedlings were placed in a greenhouse. 5 Days after the irrigation, leaves of cabbage were picked and placed in dishes. In each dish, five 3rd-instar larvae of Plutella xylostella were released, and the dishes were covered with lids and placed in an incubator at 25° C. 6 Days after, dead insects in the dishes were counted, and the mortality was calculated by using the same equation as in Test Example 1. The test was carried out in duplicate.

The molecule `CCSc1c(-c2nc3cc(C(F)(F)F)cnc3n2C)nc2cc(C(F)(F)F)ncn12` [1-1-055b, 2-[3-(ethylthio)-7-(trifluoromethyl)imidazo[1,2-c]pyrimidin-2-yl]-3-methyl-6-(trifluoromethyl)-3H-imidazo[4,5-b]pyridine] returned a mortality at 500 ppm in test [1] not below 50%.
As to `CCS(=O)(=O)c1c(-c2cn3c(C)nc(C(F)(F)C(F)(F)F)cc3n2)nc2ccc(C(F)(F)F)cn12` [1-3-007a, 2-[3-(ethylsulfonyl)-6-(trifluoromethyl)imidazo[1,2-a]pyridin-2-yl]-5-methyl-7-(perfluoroethyl)imidazo[1,2-c]pyrimidine], the mortality at 500 ppm in the test on Nilaparvata lugens [2], in the test with Myzus persicae, with Spodoptera litura and in the test on Plutella xylostella [4] was not below 90% each time. Also, the mortality at 10 µg/cm2 in the test on Ctenocephalides felis is not below 50%. This molecule also gave a mortality at 20 ppm in the test with Nilaparvata lugens [3] not below 90%.
`CCSc1c(-c2nc3cc(C(F)(F)F)cnc3n2C)n(C)c2ccc(C(F)(F)F)cc12` [3-1-001b, 2-[3-(ethylthio)-1-methyl-5-(trifluoromethyl)-1H-indol-2-yl]-3-methyl-6-(trifluoromethyl)-3H-imidazo[4,5-b]pyridine]: the results for the mortality at 500 ppm (in test [1]; with Plutella xylostella [4]) were not below 50% and not below 90%, respectively. The molecule also came in with a mortality at 10 µg/cm2 with Ctenocephalides felis not below 50%.
Regarding `CCS(=O)(=O)c1c(-n2cc3ncc(C(F)(F)F)cc3n2)nc2cc(C(F)(F)F)ccn12` [1-10-002a, 2-[3-(ethylsulfonyl)-7-(trifluoromethyl)imidazo[1,2-a]pyridin-2-yl]-6-(trifluoromethyl)-2H-pyrazolo[4,3-b]pyridine], the mortality at 500 ppm with Myzus persicae, in the test with Spodoptera litura and in the test on Plutella xylostella [4] was not below 90% throughout. This molecule gave a mortality at 10 µg/cm2 with Ctenocephalides felis not below 50%. Besides, in the test with Plutella xylostella [5], the pest or weed control at 500 ppm was not below 90%.
`CCS(=O)(=O)c1c(-c2nc3cc(C(F)(F)F)cnc3n2C)nc2cnc(C(F)(F)F)cn12` [1-1-029a, 2-[3-(ethylsulfonyl)-6-(trifluoromethyl)imidazo[1,2-a]pyrazin-2-yl]-3-methyl-6-(trifluoromethyl)-3H-imidazo[4,5-b]pyridine] gave a mortality at 10 µg/cm2 in the test with Ctenocephalides felis not below 50%. The mortality at 500 ppm in the test on Spodoptera litura and with Plutella xylostella [4] was not below 90% each time. For the same molecule, in the test with Plutella xylostella [5], the pest or weed control at 500 ppm is not below 90%.
With `CCSc1c(-c2nc3cc(C(F)(F)F)cnc3n2C)nc2cc(C(F)(F)F)ccn12` [1-1-002b, 2-[3-(ethylthio)-7-(trifluoromethyl)imidazo[1,2-a]pyridin-2-yl]-3-methyl-6-(trifluoromethyl)-3H-imidazo[4,5-b]pyridine], the mortality at 500 ppm was not below 50% in test [1], not below 90% in the test on Myzus persicae, not below 90% with Spodoptera litura and not below 90% with Plutella xylostella [4]. For the same molecule, the mortality at 10 µg/cm2 in the test with Ctenocephalides felis was not below 50%.
Consider `CCS(=O)(=O)c1c(-n2cc3cnc(C(F)(F)F)cc3n2)nc2cc(C(F)(F)F)ccn12` [1-11-001a, 2-[3-(ethylsulfonyl)-7-(trifluoromethyl)imidazo[1,2-a]pyridin-2-yl]-6-(trifluoromethyl)-2H-pyrazolo[4,3-c]pyridine], for which the mortality at 500 ppm in the test with Nilaparvata lugens [2], in the test with Myzus persicae, in the test with Spodoptera litura and with Plutella xylostella [4] was not below 90% throughout. Moreover, in the test on Ctenocephalides felis, the mortality at 10 µg/cm2 is not below 50%. In the test on Nilaparvata lugens [3], this molecule had a mortality at 20 ppm not below 90%. The same molecule displayed a pest or weed control at 500 ppm with Plutella xylostella [5] not below 90%.
`CCS(=O)(=O)c1c(-c2nc3cc(C(F)(F)F)cnc3n2C)n(C)c2ccc(C(F)(F)F)cc12` [3-1-001a, 2-[3-(ethylsulfonyl)-1-methyl-5-(trifluoromethyl)-1H-indol-2-yl]-3-methyl-6-(trifluoromethyl)-3H-imidazo[4,5-b]pyridine]: the mortality at 500 ppm was not below 50% in test [1], not below 90% in the test on Myzus persicae, not below 90% with Spodoptera litura and not below 90% in the test with Plutella xylostella [4]. This molecule also had a mortality at 10 µg/cm2 with Ctenocephalides felis not below 50%.
Take `CCS(=O)(=O)c1c(-c2cn3ncc(C(F)(F)F)cc3n2)nc2cc(C(F)(F)F)ccn12` [1-4-001a, 2-[3-(ethylsulfonyl)-7-(trifluoromethyl)imidazo[1,2-a]pyridin-2-yl]-7-(trifluoromethyl)imidazo[1,2-b]pyridazine]: the mortality at 500 ppm in the test on Myzus persicae, in the test with Spodoptera litura and with Plutella xylostella [4] was not below 90% throughout. In the test on Ctenocephalides felis, this molecule registered a mortality at 10 µg/cm2 not below 50%. The molecule also returned a pest or weed control at 500 ppm in the test with Plutella xylostella [5] not below 90%.
`CCS(=O)(=O)c1c(-c2nc3cc(C(F)(F)F)cnc3n2C)nc2sc(C(F)(F)F)nn12` [2-1-002a, 5-(ethylsulfonyl)-6-[3-methyl-6-(trifluoromethyl)-3H-imidazo[4,5-b]pyridin-2-yl]-2-(trifluoromethyl)imidazo[2,1-b][1,3,4]thiadiazole]: the mortality at 500 ppm in test [1] was not below 50%; in the test with Myzus persicae, not below 90%; with Plutella xylostella [4], not below 90%. The mortality at 20 ppm in the test with Nilaparvata lugens [3] was not below 90%. Besides, the pest or weed control at 500 ppm with Plutella xylostella [5] is not below 90%.
`CCS(=O)(=O)c1c(-c2nc3cc(C(F)(F)F)nc(C)c3n2C)nc2ccc(C(F)(F)F)cn12` [1-8-003a, 2-[3-(ethylsulfonyl)-6-(trifluoromethyl)imidazo[1,2-a]pyridin-2-yl]-3,4-dimethyl-6-(trifluoromethyl)-3H-imidazo[4,5-c]pyridine] returned a mortality at 10 µg/cm2 in the test on Ctenocephalides felis not below 50%. Moreover, the mortality at 500 ppm in the test with Spodoptera litura was not below 90%. The molecule further had a pest or weed control at 500 ppm in the test with Plutella xylostella [5] not below 90%.
As for `CCS(=O)(=O)c1c(-c2nc3cc([S+]([O-])C(F)(F)F)ccc3o2)nc2ccc(C(F)(F)F)cn12` (centres unmarked) [1-2-002a, 2-[3-(ethylsulfonyl)-6-(trifluoromethyl)imidazo[1,2-a]pyridin-2-yl]-5-[(trifluoromethyl)sulfinyl]benz[d]oxazole], the mortality at 500 ppm in the test on Nilaparvata lugens [2], with Myzus persicae, with Spodoptera litura and with Plutella xylostella [4] was not below 90% in each case. Further, the mortality at 20 ppm in the test with Nilaparvata lugens [3] is not below 90%.
In test [1], `CCSc1c(-c2nc3cc(C(F)(F)F)cnc3n2C)nc2ncc(C(F)(F)F)cn12` [1-1-054b, 2-[3-(ethylthio)-6-(trifluoromethyl)imidazo[1,2-a]pyrimidin-2-yl]-3-methyl-6-(trifluoromethyl)-3H-imidazo[4,5-b]pyridine] gave a mortality at 500 ppm not below 50%. Further, the mortality at 10 µg/cm2 in the test on Ctenocephalides felis was not below 50%.

A word on the mortality: it is the share of the test organisms that died. Low values mean a weak lethal effect, high ones a strong lethal effect. Usually pest or weed control stands for the degree to which the test organism was suppressed or injured, in per cent. High values mean a strong effect, low ones a weak effect.
